Laboratory results as given in the NIST ThermoML archive (doi:10.1021/je900511c).
Numbers after ± are expanded uncertainties.

Conditions: Liquid, Closed cell (Static) method

CCO[Si](C)(Cl)Cl [dichloroethoxymethylsilane]
Conditions | vapor or sublimation pressure [kPa]
312.94 K | 11.32 ± 0.12
318.43 K | 14.32 ± 0.13
323.01 K | 17.32 ± 0.15
326.93 K | 20.32 ± 0.17
330.24 K | 23.32 ± 0.2
333.29 K | 26.32 ± 0.21
336.2 K | 29.32 ± 0.23
338.84 K | 32.33 ± 0.25
341.28 K | 35.33 ± 0.26
343.57 K | 38.33 ± 0.28
345.66 K | 41.33 ± 0.31
347.54 K | 44.33 ± 0.33
349.48 K | 47.33 ± 0.33
351.36 K | 50.33 ± 0.35
353.04 K | 53.33 ± 0.37
354.72 K | 56.33 ± 0.39
356.25 K | 59.33 ± 0.4
357.82 K | 62.33 ± 0.41
359.25 K | 65.33 ± 0.45
360.57 K | 68.33 ± 0.46
361.95 K | 71.33 ± 0.47
363.22 K | 74.33 ± 0.47
364.59 K | 77.33 ± 0.47
365.87 K | 80.33 ± 0.52
366.98 K | 83.33 ± 0.53
368.21 K | 86.33 ± 0.52
369.38 K | 89.33 ± 0.55
370.5 K | 92.33 ± 0.58
371.51 K | 95.33 ± 0.6
372.58 K | 98.33 ± 0.59
373.6 K | 101.27 ± 0.6
